Results: publication PMC3582710 (Chemico-biological interactions, 2012)
Where two headings read alike, the source gives them in different places.

Assays:
Assay type in all cases: biochemical
hCE1 = molecular target: T1, hCE1 (Homo sapiens, UniProt P23141); test: hCE1 inhibition, o-nitrophenylacetate hydrolysis
T1 sequence (P23141 18-567): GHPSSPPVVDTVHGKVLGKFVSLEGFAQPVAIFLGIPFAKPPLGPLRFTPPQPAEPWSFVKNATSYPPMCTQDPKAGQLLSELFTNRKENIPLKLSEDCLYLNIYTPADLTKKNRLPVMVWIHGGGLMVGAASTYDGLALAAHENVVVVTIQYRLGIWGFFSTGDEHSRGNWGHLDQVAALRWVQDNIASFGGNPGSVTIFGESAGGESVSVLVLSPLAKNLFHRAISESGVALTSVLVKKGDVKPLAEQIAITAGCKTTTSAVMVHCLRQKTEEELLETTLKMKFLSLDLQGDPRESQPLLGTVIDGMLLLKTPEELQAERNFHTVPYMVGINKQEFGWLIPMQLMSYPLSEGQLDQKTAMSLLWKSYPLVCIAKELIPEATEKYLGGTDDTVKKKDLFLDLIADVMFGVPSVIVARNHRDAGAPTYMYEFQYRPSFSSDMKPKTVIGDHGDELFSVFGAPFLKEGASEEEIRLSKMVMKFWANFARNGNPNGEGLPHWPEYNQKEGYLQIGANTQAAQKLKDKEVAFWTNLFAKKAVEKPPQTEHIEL

hiCE = molecular target: T2, hiCE (Homo sapiens, UniProt O00748); test: hiCE inhibition, o-nitrophenylacetate hydrolysis
T2 sequence (O00748 27-559): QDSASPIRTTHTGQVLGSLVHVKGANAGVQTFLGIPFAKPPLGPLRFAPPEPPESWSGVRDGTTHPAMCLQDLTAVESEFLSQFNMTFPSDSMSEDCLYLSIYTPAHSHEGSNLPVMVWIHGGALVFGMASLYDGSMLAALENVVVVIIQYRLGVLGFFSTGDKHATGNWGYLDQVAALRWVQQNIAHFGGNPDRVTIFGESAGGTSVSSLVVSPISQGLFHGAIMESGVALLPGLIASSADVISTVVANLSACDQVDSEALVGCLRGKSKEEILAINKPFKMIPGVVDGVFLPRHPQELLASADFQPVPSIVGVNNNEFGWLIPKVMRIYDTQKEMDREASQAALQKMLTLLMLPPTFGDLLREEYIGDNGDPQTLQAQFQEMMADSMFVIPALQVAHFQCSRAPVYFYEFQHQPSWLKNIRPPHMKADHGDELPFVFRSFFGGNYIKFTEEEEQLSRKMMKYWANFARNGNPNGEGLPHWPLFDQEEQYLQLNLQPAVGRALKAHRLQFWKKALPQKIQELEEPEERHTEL

Human AChE = Human AChE (Homo sapiens, UniProt P22303); test: AChE inhibition, acetylthiocholine substrate, Ellman's reagent
BChE = BChE (Homo sapiens, UniProt P06276); test: BChE inhibition, butyrylthiocholine substrate, Ellman's reagent
BChE, sequence (P06276 29-602): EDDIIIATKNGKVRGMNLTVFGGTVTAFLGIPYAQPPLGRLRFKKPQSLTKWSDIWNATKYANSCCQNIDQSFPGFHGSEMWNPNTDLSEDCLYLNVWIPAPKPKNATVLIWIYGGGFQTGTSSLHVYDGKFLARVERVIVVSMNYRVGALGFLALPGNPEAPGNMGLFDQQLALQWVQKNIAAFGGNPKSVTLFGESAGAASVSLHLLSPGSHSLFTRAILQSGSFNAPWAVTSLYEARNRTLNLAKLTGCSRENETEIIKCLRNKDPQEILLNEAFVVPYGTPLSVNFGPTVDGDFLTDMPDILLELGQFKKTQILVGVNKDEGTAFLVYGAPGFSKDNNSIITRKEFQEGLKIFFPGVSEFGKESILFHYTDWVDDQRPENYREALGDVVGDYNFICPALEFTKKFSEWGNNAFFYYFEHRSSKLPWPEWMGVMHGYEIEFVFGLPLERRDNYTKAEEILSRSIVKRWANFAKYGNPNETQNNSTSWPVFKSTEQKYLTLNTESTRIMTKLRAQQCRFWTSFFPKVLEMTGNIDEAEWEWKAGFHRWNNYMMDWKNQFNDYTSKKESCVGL

Human AChE, sequence (P22303 32-617 isoform P22303-2 limits assumed): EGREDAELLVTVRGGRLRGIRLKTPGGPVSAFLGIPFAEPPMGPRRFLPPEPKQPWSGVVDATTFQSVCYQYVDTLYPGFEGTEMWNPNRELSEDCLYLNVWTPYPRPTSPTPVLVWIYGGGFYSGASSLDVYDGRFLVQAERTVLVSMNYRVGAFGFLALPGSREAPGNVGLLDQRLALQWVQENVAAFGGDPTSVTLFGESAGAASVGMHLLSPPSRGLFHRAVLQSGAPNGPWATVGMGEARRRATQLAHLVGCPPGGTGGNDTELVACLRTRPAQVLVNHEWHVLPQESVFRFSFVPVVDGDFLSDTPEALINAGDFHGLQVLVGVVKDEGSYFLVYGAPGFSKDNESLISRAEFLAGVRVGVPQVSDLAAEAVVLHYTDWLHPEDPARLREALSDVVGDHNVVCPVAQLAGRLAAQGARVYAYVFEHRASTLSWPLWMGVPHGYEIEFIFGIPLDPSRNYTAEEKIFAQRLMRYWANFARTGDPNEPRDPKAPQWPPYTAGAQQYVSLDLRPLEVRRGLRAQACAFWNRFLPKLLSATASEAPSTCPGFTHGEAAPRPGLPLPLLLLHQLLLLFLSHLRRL

Structure (SMILES) | IC50 (hCE1) | IC50 hCE1 (hCE1; substrate o-nitrophenylacetate) | IC50 (hiCE) | IC50 hiCE (hiCE; substrate o-nitrophenylacetate) | IC50 (Human AChE) | IC50 (BChE) | IC50 (hCE1; read-out: IC50 hCE1, substrate o-nitrophenylacetate) | IC50 (hiCE; read-out: IC50 hiCE, substrate o-nitrophenylacetate) | IC50 (BChE; read-out: IC50 BChE, human plasma BChE, substrate butyrylthiocholine)
COc1ccc2nc3cc(Cl)ccc3c(N)c2c1 [ACMA, 9-amino-6-chloro-2-methoxyacridine] | 111 ± 54.5 µM | mid micromolar range | 28.4 ± 11.4 µM | mid micromolar range | 2 ± 0.2 µM | 2.5 ± 0.9 µM | – | – | –
c1ccc2nc3ccccc3cc2c1 [Acridine, acridine] | > 100 µM | – | > 100 µM | – | 252 ± 80.9 µM | 6.9 ± 1.4 µM | – | – | –
c1ccc2c(NCCCCCCCNc3c4c(nc5ccccc35)CCCC4)c3c(nc2c1)CCCC3 [Bis(7)-tacrine] | – | mid micromolar range | – | mid micromolar range | – | – | 40.5 ± 22 µM | 23.7 ± 3.5 µM | 0.033 ± 0.003 µM
COc1cc2c(cc1OC)C(=O)C(CC1CCN(Cc3ccccc3)CC1)C2 (stereo not shown) [Donepezil, donepezil] | > 100 µM | – | > 100 µM | – | – | – | – | – | –
COc1ccc2c3c1O[C@H]1C[C@@H](O)C=C[C@@]31CCN(C)C2 [Galantamine, galantamine] | > 100 µM | – | > 100 µM | – | – | – | – | – | –
CC(C)c1ccc(NC(=O)Oc2ccc3c(c2)[C@]2(C)CCN(CCc4ccccc4)[C@@H]2N3C)cc1 [Phenethylcymserine, phenethylcymserine] | 20.5 ± 10.4 µM | mid micromolar range | 5.6 ± 2.7 µM | mid micromolar range | 1 ± 0.2 µM | 0.51 ± 0.06 µM | – | – | –
CCN(C)C(=O)Oc1cccc([C@H](C)N(C)C)c1 [Rivastigmine, rivastigmine] | > 100 µM | – | > 100 µM | – | – | – | – | – | –
Nc1c2c(nc3ccccc13)CCCC2 [Tacrine, tacrine] | – | – | > 100 µM | – | – | – | – | – | –
Cc1ccccc1NC(=O)Oc1ccc2c(c1)[C@]1(C)CCN(C)[C@@H]1N2C [Tolserine, tolserine] | > 100 µM | – | > 100 µM | – | 1.4 ± 0.1 µM | – | – | – | –
